Test results: PubChem BioAssay (NCI)
Where “and” joins values, the source holds several entries; their conditions need not be identical. Identical values can stand only once.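 Values below derive from 48-hour exposures of cells grown in 96-well plates, with endpoints linearly interpolated between the two concentrations bracketing the appropriate inhibition level. GI50 = concentration required for 50% inhibition of growth. TGI is the concentration that stops growth completely.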

Experiments:
Assay in all cases: NCI-60 cell line screen, 48 h
786-0 renal = test system: 786-0 renal
EKVX NSCLC = test system: EKVX NSCLC
HCT-15 colon = test system: HCT-15 colon
OVCAR-4 ovarian = test system: OVCAR-4 ovarian
RXF 393 renal = test system: RXF 393 renal
SF-268 CNS = test system: SF-268 CNS
SF-295 CNS = test system: SF-295 CNS
SK-MEL-2 melanoma = test system: SK-MEL-2 melanoma
TK-10 renal = test system: TK-10 renal
NCI-H522 lung = test system: NCI-H522 lung

SMILES: OC1CCC[C@@H]1Sc1ccccc1 (stereo partly specified)
- TGI (786-0 renal): > 100 µM
- TGI (EKVX NSCLC): > 100 µM
- TGI (HCT-15 colon): > 100 µM
- TGI (OVCAR-4 ovarian): > 100 µM
- TGI (RXF 393 renal): > 100 µM
- TGI (SF-268 CNS): > 100 µM
- TGI (SF-295 CNS): > 100 µM
- TGI (SK-MEL-2 melanoma): > 100 µM
- TGI (TK-10 renal): > 100 µM

SMILES: Cn1nc(-c2ccccc2)c(C(=O)/C=C/c2ccc(F)cc2)c(N2CCOCC2)c1=O
- TGI (786-0 renal): 36.2 µM
- TGI (EKVX NSCLC): 75 µM
- TGI (HCT-15 colon): > 100 µM
- TGI (NCI-H522 lung): 36.4 µM
- TGI (RXF 393 renal): 27.8 µM
- TGI (SF-268 CNS): 38.2 µM
- TGI (SF-295 CNS): 32.4 µM
- TGI (TK-10 renal): 97.5 µM

SMILES: NC(=Nc1nc(-c2ccccn2)cc2ccccc12)c1ccccn1
- GI50 (786-0 renal): 0.0177 µM
- TGI (EKVX NSCLC): > 17.2 µM
- GI50 (HCT-15 colon): 0.000503 µM
- TGI (HCT-15 colon): > 19.7 µM
- GI50 (NCI-H522 lung): 0.0458 µM
- GI50 (OVCAR-4 ovarian): 0.0798 µM
- GI50 (RXF 393 renal): 0.32 µM
- TGI (RXF 393 renal): 0.795 µM
- GI50 (SF-268 CNS): 0.111 µM
- TGI (SF-268 CNS): 12.1 µM
- GI50 (SK-MEL-2 melanoma): 0.477 µM and 0.272 µM
- TGI (SK-MEL-2 melanoma): > 89.3 µM
- GI50 (TK-10 renal): 0.198 µM
- TGI (TK-10 renal): > 100 µM

SMILES: C#CCN(N=O)C(=O)NCCCC(NC(C)=O)C(=O)NCc1ccccc1 (stereo unspecified)
- TGI (786-0 renal): > 100 µM
- TGI (EKVX NSCLC): > 100 µM
- TGI (HCT-15 colon): > 100 µM
- TGI (NCI-H522 lung): > 100 µM
- TGI (OVCAR-4 ovarian): > 100 µM
- TGI (RXF 393 renal): > 100 µM
- TGI (SF-268 CNS): > 100 µM
- TGI (SF-295 CNS): > 100 µM
- TGI (TK-10 renal): > 100 µM

SMILES: COC(=O)C1=C(O)[C@H](C(=O)OC)[C@]2(O)[C@@H](C(=O)OC)[C@H]1C[C@@H](c1ccc(OC(=O)/C=C/c3ccco3)cc1)[C@@H]2C(=O)OC
- GI50 (786-0 renal): 11.8 µM
- TGI (786-0 renal): 30.6 µM
- GI50 (EKVX NSCLC): 21.9 µM
- TGI (EKVX NSCLC): 49.1 µM
- GI50 (HCT-15 colon): 6.22 µM
- TGI (HCT-15 colon): 24 µM
- GI50 (RXF 393 renal): 41.6 µM
- TGI (RXF 393 renal): > 100 µM
- GI50 (SF-268 CNS): 40.8 µM
- TGI (SF-268 CNS): > 100 µM
- GI50 (SF-295 CNS): 19.6 µM
- TGI (SF-295 CNS): 65.2 µM
- GI50 (TK-10 renal): 47.1 µM
- TGI (TK-10 renal): > 100 µM

SMILES: O=C(O)CCSC(=S)Nc1cccc(F)c1
- TGI (786-0 renal): > 100 µM
- TGI (EKVX NSCLC): 81.8 µM
- TGI (HCT-15 colon): > 100 µM
- TGI (OVCAR-4 ovarian): > 100 µM
- TGI (RXF 393 renal): 99.2 µM
- TGI (SF-268 CNS): > 100 µM
- TGI (SF-295 CNS): > 100 µM
- TGI (TK-10 renal): > 100 µM

SMILES: O=C1[C@H](Cl)[C@H]2c3cc4ccccc4nc3Oc3ccccc3N12
- TGI (786-0 renal): > 100 µM
- TGI (EKVX NSCLC): > 100 µM
- TGI (HCT-15 colon): > 100 µM
- TGI (NCI-H522 lung): 88 µM
- TGI (OVCAR-4 ovarian): > 100 µM
- TGI (SF-268 CNS): > 100 µM
- TGI (SF-295 CNS): > 100 µM
- TGI (SK-MEL-2 melanoma): > 100 µM
- TGI (TK-10 renal): > 100 µM

SMILES: COc1ccc2c(c1)N(CCO)C1=C(C(=O)OC1)C2c1ccccc1 (stereo unspecified)
- GI50 (786-0 renal): 2.7 µM
- TGI (786-0 renal): > 50 µM
- GI50 (EKVX NSCLC): 2.39 µM
- TGI (EKVX NSCLC): > 50 µM
- GI50 (HCT-15 colon): 1.94 µM
- TGI (HCT-15 colon): > 50 µM
- GI50 (NCI-H522 lung): 0.746 µM
- TGI (NCI-H522 lung): 3.33 µM
- GI50 (OVCAR-4 ovarian): 3.69 µM
- TGI (OVCAR-4 ovarian): > 50 µM
- GI50 (SF-268 CNS): 2.64 µM
- TGI (SF-268 CNS): > 50 µM
- GI50 (SF-295 CNS): 0.888 µM
- TGI (SF-295 CNS): 2.73 µM
- GI50 (SK-MEL-2 melanoma): 1.61 µM
- TGI (SK-MEL-2 melanoma): 4.74 µM
- GI50 (TK-10 renal): 2.11 µM
- TGI (TK-10 renal): > 50 µM

SMILES: Cc1ccc(NC(=O)CC/C(CC(=O)C(C)(C)C)=N\Nc2ccc([N+](=O)[O-])cc2[N+](=O)[O-])cc1C
- TGI (786-0 renal): > 100 µM
- TGI (EKVX NSCLC): > 100 µM
- TGI (HCT-15 colon): > 100 µM
- TGI (RXF 393 renal): > 100 µM
- TGI (SF-268 CNS): > 100 µM
- TGI (SF-295 CNS): > 100 µM
- TGI (SK-MEL-2 melanoma): > 100 µM
- TGI (TK-10 renal): > 100 µM

SMILES: O=C(O)CCSC(=O)Nc1ccccc1Cl
- TGI (786-0 renal): > 100 µM
- TGI (EKVX NSCLC): > 100 µM
- TGI (HCT-15 colon): > 100 µM
- TGI (OVCAR-4 ovarian): > 100 µM
- TGI (RXF 393 renal): > 100 µM
- TGI (SF-268 CNS): > 100 µM
- TGI (SF-295 CNS): > 100 µM
- TGI (TK-10 renal): > 100 µM

SMILES: Nc1ccc2c(c1)Oc1c(F)c(F)cc3c(=O)c(C(=O)O)cn-2c13
- TGI (786-0 renal): > 100 µM
- TGI (EKVX NSCLC): > 100 µM
- TGI (HCT-15 colon): > 100 µM
- TGI (NCI-H522 lung): > 100 µM
- TGI (OVCAR-4 ovarian): > 100 µM
- TGI (RXF 393 renal): > 100 µM
- TGI (SK-MEL-2 melanoma): > 100 µM
- TGI (TK-10 renal): > 100 µM

SMILES: Cc1cn2c(/C=C3/C(=O)Nc4ccc(F)cc43)c(C)nc2s1
- GI50 (786-0 renal): 14.4 µM
- TGI (786-0 renal): > 50 µM
- GI50 (EKVX NSCLC): 17.3 µM
- TGI (EKVX NSCLC): > 50 µM
- GI50 (HCT-15 colon): 2.73 µM
- TGI (HCT-15 colon): > 50 µM
- GI50 (NCI-H522 lung): 3.22 µM
- TGI (NCI-H522 lung): 18.7 µM
- GI50 (OVCAR-4 ovarian): 12.6 µM
- TGI (OVCAR-4 ovarian): > 50 µM
- GI50 (SF-268 CNS): 12.6 µM
- TGI (SF-268 CNS): > 50 µM
- GI50 (SF-295 CNS): 3.76 µM
- TGI (SF-295 CNS): 34.6 µM
- GI50 (SK-MEL-2 melanoma): 8.76 µM
- TGI (SK-MEL-2 melanoma): > 50 µM
- GI50 (TK-10 renal): 22.2 µM
- TGI (TK-10 renal): > 50 µM

SMILES: O=C(Nc1nc(-c2ccc(Cl)cc2)nc2c1sc(=S)n2-c1ccccc1)C(F)(F)F
- GI50 (786-0 renal): 1.67 µM
- TGI (786-0 renal): 3.27 µM
- GI50 (EKVX NSCLC): 3.83 µM
- TGI (EKVX NSCLC): 31.8 µM
- GI50 (HCT-15 colon): 6.46 µM
- TGI (HCT-15 colon): > 100 µM
- GI50 (NCI-H522 lung): 4.72 µM
- TGI (NCI-H522 lung): 39.8 µM
- GI50 (OVCAR-4 ovarian): 1.95 µM
- TGI (OVCAR-4 ovarian): 4.19 µM
- GI50 (RXF 393 renal): 2.36 µM
- TGI (RXF 393 renal): 5.01 µM
- GI50 (SF-268 CNS): 4.45 µM
- TGI (SF-268 CNS): 24.3 µM
- GI50 (SF-295 CNS): 1.71 µM
- TGI (SF-295 CNS): 4.01 µM
- GI50 (SK-MEL-2 melanoma): 5.8 µM
- TGI (SK-MEL-2 melanoma): 22.7 µM

SMILES: Cc1ccc(/C=C(\C#N)c2ccccc2)cc1
- TGI (786-0 renal): > 100 µM
- TGI (HCT-15 colon): > 100 µM
- TGI (NCI-H522 lung): > 100 µM
- TGI (OVCAR-4 ovarian): > 100 µM
- TGI (RXF 393 renal): > 100 µM
- TGI (SF-268 CNS): > 100 µM
- TGI (SF-295 CNS): > 100 µM
- TGI (SK-MEL-2 melanoma): > 100 µM
- TGI (TK-10 renal): > 100 µM

SMILES: COc1ccc(C[C@H](N)C(=O)N2C[C@@H](CO)C[C@@H](n3cnc4c(N(C)C)ncnc43)C2)cc1
- TGI (786-0 renal): > 100 µM
- TGI (EKVX NSCLC): > 100 µM
- TGI (HCT-15 colon): > 100 µM
- TGI (NCI-H522 lung): > 100 µM
- TGI (SF-268 CNS): > 100 µM
- TGI (SF-295 CNS): > 100 µM
- TGI (SK-MEL-2 melanoma): > 100 µM
- TGI (TK-10 renal): > 100 µM

SMILES: C=C1C(=O)OC2CC3(C)CCCC(C)C3=CC12 (stereo unspecified)
- TGI (786-0 renal): 11.6 µM
- TGI (EKVX NSCLC): 24.3 µM
- TGI (HCT-15 colon): 5.08 µM
- TGI (NCI-H522 lung): 3.97 µM
- TGI (OVCAR-4 ovarian): 20.2 µM
- TGI (SF-268 CNS): 23.1 µM
- TGI (SF-295 CNS): 26.3 µM
- TGI (SK-MEL-2 melanoma): 28.5 µM
- TGI (TK-10 renal): 10.1 µM

SMILES: O=C(NNC(=S)Nc1ccccc1)c1ccccn1
- GI50 (786-0 renal): 2.81 µM
- TGI (786-0 renal): > 100 µM
- GI50 (HCT-15 colon): 1.13 µM
- TGI (HCT-15 colon): > 100 µM
- GI50 (NCI-H522 lung): 5.99 µM
- TGI (NCI-H522 lung): > 100 µM
- GI50 (OVCAR-4 ovarian): 1.46 µM
- TGI (OVCAR-4 ovarian): > 100 µM
- GI50 (SF-268 CNS): 2.66 µM
- TGI (SF-268 CNS): > 100 µM
- GI50 (SF-295 CNS): 1.97 µM
- TGI (SF-295 CNS): > 100 µM
- GI50 (SK-MEL-2 melanoma): 9.74 µM
- TGI (SK-MEL-2 melanoma): > 100 µM

SMILES: CC1=C2[C@H](c3ccccc3)C3C=CC2(c2ccccc23)N(C(=O)C(c2ccccc2)c2ccccc2)C1=O (stereo partly specified)
- TGI (786-0 renal): > 100 µM
- TGI (EKVX NSCLC): > 100 µM
- TGI (HCT-15 colon): > 100 µM
- TGI (OVCAR-4 ovarian): > 100 µM
- TGI (RXF 393 renal): > 100 µM
- TGI (SF-268 CNS): > 100 µM
- TGI (SF-295 CNS): > 100 µM
- TGI (TK-10 renal): > 100 µM

SMILES: CN(C)CCC1(C2=CCCC2)CC/C(=C\c2ccccc2Cl)C1=O (stereo unspecified)
- TGI (786-0 renal): 25.7 µM
- TGI (EKVX NSCLC): 29.3 µM
- TGI (HCT-15 colon): 19.4 µM
- TGI (OVCAR-4 ovarian): 25.8 µM
- TGI (RXF 393 renal): 17.5 µM
- TGI (SF-268 CNS): 28.7 µM
- TGI (SF-295 CNS): 27.9 µM
- TGI (SK-MEL-2 melanoma): 27.6 µM
- TGI (TK-10 renal): 33.5 µM
